Consider 23 compounds from patent publication US20250388565A1, “ESTROGEN RECEPTOR ALPHA DEGRADERS AND METHODS OF USE THEREOF” (Relay Therapeutics, Inc., priority 2022, published 2025).

The assay deals with T1, ERα protein (HiBiT-tagged) in ESR1_HiBiT KI MCF7 cells (Homo sapiens, UniProt P03372).
T1 sequence (P03372 1-595): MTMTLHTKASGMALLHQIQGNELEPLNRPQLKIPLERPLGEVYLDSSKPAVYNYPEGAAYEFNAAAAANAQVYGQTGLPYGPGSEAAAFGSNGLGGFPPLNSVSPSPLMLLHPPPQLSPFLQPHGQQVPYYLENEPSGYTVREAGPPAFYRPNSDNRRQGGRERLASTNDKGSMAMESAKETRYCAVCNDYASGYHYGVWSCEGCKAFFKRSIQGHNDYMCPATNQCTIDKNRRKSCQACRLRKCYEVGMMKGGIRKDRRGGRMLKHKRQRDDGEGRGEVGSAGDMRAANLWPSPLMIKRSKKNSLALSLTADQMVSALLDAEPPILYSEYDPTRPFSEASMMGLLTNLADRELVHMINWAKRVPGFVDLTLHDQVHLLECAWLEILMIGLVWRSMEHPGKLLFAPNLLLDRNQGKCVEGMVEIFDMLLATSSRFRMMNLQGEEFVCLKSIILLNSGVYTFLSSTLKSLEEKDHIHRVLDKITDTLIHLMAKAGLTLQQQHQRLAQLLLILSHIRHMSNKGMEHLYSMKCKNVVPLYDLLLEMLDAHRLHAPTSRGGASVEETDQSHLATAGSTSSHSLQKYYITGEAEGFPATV
The experiment in a line: Nano Glo HiBiT Lytic Degradation Assay. The class given is cell-based. To be noted: 6 hours with compound, 14-point dose response 1:3, bell-shape curve fit, half-maximal effect of first Hill model, read-out: MCF7 ESR1 HiBiT - (DC50). In short, it runs like this:
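Lytic Nano-Glo HiBiT luminescence quantified ERα remaining after a 6 h, 37° C compound exposure of MCF7 cells carrying endogenous HiBiT-tagged ESR1. Dosing used 14 threefold dilutions from a 10 mM DMSO stock (0.1% DMSO final), run in duplicate. Signals were corrected for cell-free background and expressed relative to DMSO, and DC50 came from a bell-shaped curve fit (first Hill model half-maximum).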
On the technique in general: With HiBiT, luminescence reflects the tagged protein that the partner subunit can reach.
Turning to `O=C1CC[C@@H](N2Cc3cc(N4CCN(CC5CCN(c6ccc([C@@H]7c8ccc(O)cc8C(F)(F)C[C@@H]7c7ccc(F)cc7)cc6)CC5)CC4)ccc3C2=O)C(=O)N1` [Compound I-310, (R)-3-(5-(4-((1-(4-((1R,2S)-4,4-difluoro-2-(4-fluorophenyl)-6-hydroxy-1,2,3,4-tetrahydronaphthalen-1-yl)phenyl)piperidin-4-yl)methyl)piperazin-1-yl)-1-oxoisoindolin-2-yl)piperidine-2,6-dione], the DC50 was 5.74 nM. With `Cn1nccc1[C@H]1CCc2cc(O)ccc2[C@H]1c1ccc(N2CCC(CN3CCN(c4ccc5c(c4)CN([C@H]4CCC(=O)NC4=O)C5=O)CC3)CC2)cc1` (single isomer, unassigned) [Compound I-24], the DC50 was no less than 10000 nM. Take `O=C1CC[C@H](N2Cc3cc(N4CCN(CC5CCN(c6ccc([C@@H]7c8ccc(O)cc8CCC78CCCCC8)cc6)CC5)CC4)ccc3C2=O)C(=O)N1` [Compound I-85, (S)-3-(5-(4-((1-(4-((R)-6′-hydroxy-3′,4′-dihydro-1′H-spiro[cyclohexane-1,2′-naphthalen]-1′-yl)phenyl)piperidin-4-yl)methyl)piperazin-1-yl)-1-oxoisoindolin-2-yl)piperidine-2,6-dione]: the DC50 is 0.64 nM. With `O=C1CC[C@H](N2Cc3cc(N4CCN(CC5CCN(c6ccc(C7c8ccc(O)cc8CCN7C7CCCCC7)cc6)CC5)CC4)ccc3C2=O)C(=O)N1` (stereo partly drawn) [Compound I-9, (3S)-3-(5-(4-((1-(4-(2-cyclohexyl-6-hydroxy-1,2,3,4-tetrahydroisoquinolin-1-yl)phenyl)piperidin-4-yl)methyl)piperazin-1-yl)-1-oxoisoindolin-2-yl)piperidine-2,6-dione], the DC50 was determined as 11 nM. As for `O=C1CC[C@H](N2Cc3cc(N4CCN(CC5CCN(c6ccc([C@H]7c8ccc(O)cc8CO[C@H]7c7cccc(OC(F)(F)F)c7)cc6)CC5)CC4)ccc3C2=O)C(=O)N1` [Compound I-361, (S)-3-(5-(4-((1-(4-((3R,4S)-7-hydroxy-3-(3-(trifluoromethoxy)phenyl)isochroman-4-yl)phenyl)piperidin-4-yl)methyl)piperazin-1-yl)-1-oxoisoindolin-2-yl)piperidine-2,6-dione], the DC50 is no less than 10000 nM. With `Cn1c(=O)n(C2CCC(=O)NC2=O)c2cccc(N3CCN(CC4CCN(c5ccc([C@@H]6c7ccc(O)cc7CC[C@@H]6c6ccccc6)cc5)CC4)CC3)c21` (stereo partly drawn) [Compound I-191, 3-(4-(4-((1-(4-((1R,2S)-6-hydroxy-2-phenyl-1,2,3,4-tetrahydronaphthalen-1-yl)phenyl)piperidin-4-yl)methyl)piperazin-1-yl)-3-methyl-2-oxo-2,3-dihydro-1H-benzo[d]imidazol-1-yl)piperidine-2,6-dione] the figure was 1.09 nM; with `C[C@H]1CCc2cc(O)ccc2[C@H]1c1ccc(N2CCC(CN3CCN(c4ccc5c(c4)CN([C@H]4CCC(=O)NC4=O)C5=O)CC3)CC2)cc1` [Compound I-124, (S)-3-(5-(4-((1-(4-((1R,2S)-6-hydroxy-2-methyl-1,2,3,4-tetrahydronaphthalen-1-yl)phenyl)piperidin-4-yl)methyl)piperazin-1-yl)-1-oxoisoindolin-2-yl)piperidine-2,6-dione], 1 nM; with `O=C1CC[C@H](N2Cc3cc(N4CCN(C[C@H]5CCCN(c6ccc([C@H]7c8ccc(O)cc8CC[C@H]7c7ccccc7)cc6)C5)CC4)ccc3C2=O)C(=O)N1` (single isomer, unassigned) [II-23], no less than 10000 nM. In the case of `Cc1cc(F)cc(F)c1[C@@H]1CCc2cc(O)ccc2[C@@H]1c1ccc(N2CCC(CN3CCN(c4ccc5c(c4)CN([C@H]4CCC(=O)NC4=O)C5=O)CC3)CC2)cc1` [II-73], the DC50 is 361 nM. Take `C[C@H]1OC2(CCCCC2)[C@@H](c2ccc(N3CCC(CN4CCN(c5ccc6c(c5)CN([C@H]5CCC(=O)NC5=O)C6=O)CC4)CC3)cc2)c2ccc(O)cc21` [Compound I-268, (S)-3-(5-(4-((1-(4-((1′R,4′S)-7′-hydroxy-1′-methylspiro[cyclohexane-1,3′-isochroman]-4′-yl)phenyl)piperidin-4-yl)methyl)piperazin-1-yl)-1-oxoisoindolin-2-yl)piperidine-2,6-dione]: the 50% degradation concentration (DC50) was no less than 10000 nM. In the case of `Cn1c(=O)n([C@@H]2CCC(=O)NC2=O)c2ccc(N3CCN(CC4CCN(c5ccc([C@@H]6c7ccc(O)cc7C(F)(F)C[C@@H]6c6ccccc6)cc5)CC4)CC3)cc21` (single isomer, unassigned) [Compound I-278], the DC50 came to 12.1 nM.

Take `Cc1c(F)cccc1[C@@H]1OCc2cc(O)ccc2[C@@H]1c1ccc(N2CCC(CN3CCN(c4ccc5c(c4)CN([C@H]4CCC(=O)NC4=O)C5=O)CC3)CC2)cc1` (single isomer, unassigned) [Compound I-380]: the DC50 stood at 77 nM. In the case of `Cn1c(=O)n([C@H]2CCC(=O)NC2=O)c2ccc(N3CCN(CC4CCN(c5ccc([C@@H]6c7ccc(O)cc7CC[C@@H]6c6ccccc6)cc5)CC4)CC3)cc21` (single isomer, unassigned) [Compound I-275], the DC50 was 0.25 nM. With `Cc1ccccc1[C@H]1CC(F)(F)c2cc(O)ccc2[C@H]1c1ccc(N2CCC(CN3CCN(c4ccc5c(c4)CN([C@H]4CCC(=O)NC4=O)C5=O)CC3)CC2)cc1` [Compound I-322, (S)-3-(5-(4-((1-(4-((1R,2S)-4,4-difluoro-6-hydroxy-2-(o-tolyl)-1,2,3,4-tetrahydronaphthalen-1-yl)phenyl)piperidin-4-yl)methyl)piperazin-1-yl)-1-oxoisoindolin-2-yl)piperidine-2,6-dione] the figure was 0.56 nM; with `O=C1CCC(N2Cc3cc([C@H]4CCN(CC5CCN(c6ccc([C@@H]7c8ccc(O)cc8CC[C@@H]7c7ccccc7)cc6)CC5)C[C@@H]4O)ccc3C2=O)C(=O)N1` (single isomer, unassigned) [II-107], 3.91 nM. `O=C1CC[C@H](N2Cc3cc(N4CCN(CC5CCN(c6ccc([C@H]7c8ccc(O)cc8CC[C@H]7c7ccc(O)cc7)cc6)CC5)CC4)ccc3C2=O)C(=O)N1` [Compound I-130, (35)-3-[5-[4-[[1-[4-[(1S, 2R)-6-hydroxy-2-(4-hydroxyphenyl)tetralin-1-yl]phenyl]-4-piperidyl]methyl]piperazin-1-yl]-1-oxo-isoindolin-2-yl]piperidine-2,6-dione]: the DC50 was no less than 10000 nM. Turning to `Cn1nc(C2CCC(=O)NC2=O)c2ccc(N3CCN(CC4CCN(c5ccc([C@@H]6c7ccc(O)cc7CC[C@@H]6c6ccccc6)cc5)CC4)CC3)cc21` (stereo partly drawn) [Compound I-188, 3-(6-(4-((1-(4-((1R,2S)-6-hydroxy-2-phenyl-1,2,3,4-tetrahydronaphthalen-1-yl)phenyl)piperidin-4-yl)methyl)piperazin-1-yl)-1-methyl-1H-indazol-3-yl)piperidine-2,6-dione], the DC50 is 1.23 nM. For the compound `O=C1CC[C@H](N2Cc3cc(N4CCN(CC5CCN(c6ccc([C@@H]7CCCc8cc(O)ccc87)cc6)CC5)CC4)ccc3C2=O)C(=O)N1` (single isomer, unassigned) [Compound I-103], the DC50 is no less than 10000 nM.

Take `O=C1CC[C@H](N2Cc3cc(N4CCN(CC5CCN(c6ccc([C@@H]7c8ccc(O)cc8CC[C@@H]7CC7CCCC7)cc6)CC5)CC4)ccc3C2=O)C(=O)N1` [Compound I-121, (S)-3-(5-(4-((1-(4-((1R,2R)-2-(cyclopentylmethyl)-6-hydroxy-1,2,3,4-tetrahydronaphthalen-1-yl)phenyl)piperidin-4-yl)methyl)piperazin-1-yl)-1-oxoisoindolin-2-yl)piperidine-2,6-dione]: the half-maximal degradation concentration (DC50) stood at 3 nM. `O=C1CC[C@H](N2Cc3cc(N4CCN(CC5CCN(c6ccc([C@H]7c8ccc(O)cc8C(F)(F)C[C@H]7c7ccc(F)cc7F)cc6)CC5)CC4)ccc3C2=O)C(=O)N1` [Compound I-319, (S)-3-(5-(4-((1-(4-((1S,2R)-2-(2,4-difluorophenyl)-4,4-difluoro-6-hydroxy-1,2,3,4-tetrahydronaphthalen-1-yl)phenyl)piperidin-4-yl)methyl)piperazin-1-yl)-1-oxoisoindolin-2-yl)piperidine-2,6-dione]: the DC50 came to 108 nM.

For the compound `O=C1CC[C@H](N2Cc3cc(N4CCN(CC5CCN(c6ccc([C@@H]7c8ccc(O)cc8CO[C@@H]7CC7CCCC7)cc6)CC5)CC4)ccc3C2=O)C(=O)N1` (single isomer, unassigned) [Compound I-232], the DC50 was determined as 0.92 nM. Take `O=C1CC[C@H](N2Cc3cc(N4CCN(CC5CCN(c6ccc([C@H]7c8ccc(O)cc8CC[C@H]7c7ccc8c(c7)CCC8)cc6)CC5)CC4)ccc3C2=O)C(=O)N1` (single isomer, unassigned) [Compound I-413]: the half-maximal degradation concentration (DC50) amounted to 0.27 nM.

For `CC(C)c1ccccc1[C@@H]1OCc2cc(O)ccc2[C@@H]1c1ccc(N2CCC(CN3CCN(c4ccc5c(c4)CN([C@H]4CCC(=O)NC4=O)C5=O)CC3)CC2)cc1` [Compound I-352, (S)-3-(5-(4-((1-(4-((3R,4S)-7-hydroxy-3-(2-isopropylphenyl)isochroman-4-yl)phenyl)piperidin-4-yl)methyl)piperazin-1-yl)-1-oxoisoindolin-2-yl)piperidine-2,6-dione], the DC50 amounted to 17 nM.

One may read the DC50 as the concentration at which degradation of the target reaches its halfway point.
